Experimental data taken from publication PMC8673480 (Journal of medicinal chemistry, 2021).

Assays:
[1] = biological target: SARS-CoV-2 3CLpro (Severe acute respiratory syndrome coronavirus 2, UniProt P0DTD1); experiment: biochemical; type: biochemical
[2] = biological target: MERS-CoV 3CLpro (Middle East respiratory syndrome-related coronavirus, UniProt K9N7C7); experiment: biochemical
[3] = Nonspecific cytotoxic effects / in vitro cytotoxicity; type: cell-based; details: human, HEK293T cells
[4] = system: PRRSV; experiment: Inhibition of replication of PRRSV; type: cell-based, porcine respiratory and reproductive syndrome virus (PRRSV)

Chain of MERS-CoV 3CLpro (K9N7C7 3248-3553 limits assumed): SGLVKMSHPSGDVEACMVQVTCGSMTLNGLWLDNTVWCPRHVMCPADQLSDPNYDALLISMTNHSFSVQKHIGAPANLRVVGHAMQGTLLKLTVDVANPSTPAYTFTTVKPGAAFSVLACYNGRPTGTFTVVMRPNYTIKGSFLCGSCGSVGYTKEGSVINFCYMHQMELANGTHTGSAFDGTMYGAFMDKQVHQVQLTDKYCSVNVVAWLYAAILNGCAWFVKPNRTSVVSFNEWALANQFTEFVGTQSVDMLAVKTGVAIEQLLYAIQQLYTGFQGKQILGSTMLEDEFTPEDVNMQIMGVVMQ

CCCC1CCC(COC(=O)NC(CC(C)C)C(=O)NC(C=O)CC2CCNC2=O)CC1 [Compound 8b, ((1r,4R)-4-Propylcyclohexyl) methyl ((2S)-4-methyl-1-oxo-1-(((2S)-1-oxo-3-(2-oxopyrrolidin-3-yl)propan-2-yl)amino)pentan-2-yl) carbamate]
IC50 [1]: 200 ± 30 nM
IC50 [2]: 60 ± 10 nM
CC50 at 72 h [3]: 43000 ± 9000 nM

CC(C)C[C@H](NC(=O)OC(C)(C)C1CCC(F)(F)CC1)C(=O)N[C@@H](C[C@@H]1CCNC1=O)C(O)S(=O)(=O)[O-].[Na+] (stereo partly drawn) [Compound 13c, Sodium (2S)-2-((S)-2-((((2-(4,4-difluorocyclohexyl)propan-2-yl)oxy)carbonyl)amino)-4-methylpentanamido)-1-hydroxy-3-((S)-2-oxopyrrolidin-3-yl)propane-1-sulfonate]
IC50 higher than those of 12b and 14c [1]: ~ 4 fold

CC(C)C[C@H](NC(=O)OCc1ccccc1)C(=O)N[C@@H](C[C@@H]1CCNC1=O)C(O)S(=O)(=O)[O-].[Na+] (some centres unmarked) [GC376]
inhibition of the replication of PRRSV [4]: none of them resulted in the reduction of viral replication
